How the values were obtained:
Conditions in all cases: Compound concentration 1000.0 nM
[1] = target: T1, Mitogen-activated protein kinase kinase kinase 2 (Homo sapiens) (UniProt Q9Y2U5)
T1 sequence (whole entry): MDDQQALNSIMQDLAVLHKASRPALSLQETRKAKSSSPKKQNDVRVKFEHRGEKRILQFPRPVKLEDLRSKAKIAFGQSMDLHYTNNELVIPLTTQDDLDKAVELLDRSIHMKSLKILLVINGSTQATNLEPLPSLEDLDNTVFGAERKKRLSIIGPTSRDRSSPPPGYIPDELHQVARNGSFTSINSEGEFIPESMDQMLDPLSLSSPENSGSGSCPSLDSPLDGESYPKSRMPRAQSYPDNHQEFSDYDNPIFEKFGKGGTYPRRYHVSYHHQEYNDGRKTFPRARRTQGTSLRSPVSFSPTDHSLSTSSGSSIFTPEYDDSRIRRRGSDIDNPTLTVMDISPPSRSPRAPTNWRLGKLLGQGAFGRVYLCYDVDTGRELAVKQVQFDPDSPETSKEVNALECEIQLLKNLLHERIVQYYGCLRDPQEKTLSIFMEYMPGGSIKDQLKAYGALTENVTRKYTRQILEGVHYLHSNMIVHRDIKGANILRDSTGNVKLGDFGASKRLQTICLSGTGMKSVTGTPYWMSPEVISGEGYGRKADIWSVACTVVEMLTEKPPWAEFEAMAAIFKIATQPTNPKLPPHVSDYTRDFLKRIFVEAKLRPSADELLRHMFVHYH

[2] = target: Serine/threonine-protein kinase B-raf (Homo sapiens) (UniProt P15056)
Chain of Serine/threonine-protein kinase B-raf (Homo sapiens) (P15056 whole entry): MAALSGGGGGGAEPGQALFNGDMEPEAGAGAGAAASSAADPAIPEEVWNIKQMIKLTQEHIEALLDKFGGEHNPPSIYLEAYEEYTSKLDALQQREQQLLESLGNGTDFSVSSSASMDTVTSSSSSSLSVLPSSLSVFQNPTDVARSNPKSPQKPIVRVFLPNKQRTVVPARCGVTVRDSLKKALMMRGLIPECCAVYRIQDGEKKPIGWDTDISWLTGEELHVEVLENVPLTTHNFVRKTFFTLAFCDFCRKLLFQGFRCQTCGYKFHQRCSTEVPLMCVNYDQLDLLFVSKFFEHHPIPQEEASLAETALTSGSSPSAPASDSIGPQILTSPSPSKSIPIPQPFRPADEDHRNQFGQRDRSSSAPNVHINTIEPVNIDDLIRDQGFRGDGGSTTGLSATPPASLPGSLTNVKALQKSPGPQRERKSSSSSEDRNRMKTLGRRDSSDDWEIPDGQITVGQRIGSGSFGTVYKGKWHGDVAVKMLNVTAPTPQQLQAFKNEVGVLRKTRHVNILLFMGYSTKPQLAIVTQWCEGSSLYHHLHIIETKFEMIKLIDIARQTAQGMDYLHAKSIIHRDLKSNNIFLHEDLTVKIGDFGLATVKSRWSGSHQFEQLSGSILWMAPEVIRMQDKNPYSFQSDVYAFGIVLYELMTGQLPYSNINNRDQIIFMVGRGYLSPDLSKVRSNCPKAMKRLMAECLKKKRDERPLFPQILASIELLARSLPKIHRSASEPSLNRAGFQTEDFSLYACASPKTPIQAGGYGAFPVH

[3] = target: Eukaryotic translation initiation factor 2-alpha kinase 1 (Homo sapiens) (UniProt Q9BQI3)
Chain of Eukaryotic translation initiation factor 2-alpha kinase 1 (Homo sapiens) (Q9BQI3 whole entry): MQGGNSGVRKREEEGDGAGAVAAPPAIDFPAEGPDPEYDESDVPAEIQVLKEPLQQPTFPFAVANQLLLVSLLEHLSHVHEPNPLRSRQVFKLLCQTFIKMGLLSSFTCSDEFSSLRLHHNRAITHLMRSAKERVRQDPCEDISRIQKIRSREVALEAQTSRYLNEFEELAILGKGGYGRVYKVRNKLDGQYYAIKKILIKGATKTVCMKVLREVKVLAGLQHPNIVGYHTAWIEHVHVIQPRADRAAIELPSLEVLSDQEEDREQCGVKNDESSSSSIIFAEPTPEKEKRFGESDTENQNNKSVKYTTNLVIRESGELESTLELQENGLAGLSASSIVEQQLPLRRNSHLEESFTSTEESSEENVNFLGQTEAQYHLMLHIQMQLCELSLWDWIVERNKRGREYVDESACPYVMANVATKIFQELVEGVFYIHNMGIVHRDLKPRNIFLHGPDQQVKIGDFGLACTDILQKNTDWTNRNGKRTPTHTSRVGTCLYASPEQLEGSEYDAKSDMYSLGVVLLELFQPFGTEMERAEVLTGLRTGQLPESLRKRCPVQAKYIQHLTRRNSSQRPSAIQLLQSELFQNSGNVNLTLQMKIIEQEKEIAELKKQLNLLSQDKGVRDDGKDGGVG

[4] = target: T2, Serine/threonine-protein kinase haspin (Homo sapiens) (UniProt Q8TF76)
T2 sequence (whole entry): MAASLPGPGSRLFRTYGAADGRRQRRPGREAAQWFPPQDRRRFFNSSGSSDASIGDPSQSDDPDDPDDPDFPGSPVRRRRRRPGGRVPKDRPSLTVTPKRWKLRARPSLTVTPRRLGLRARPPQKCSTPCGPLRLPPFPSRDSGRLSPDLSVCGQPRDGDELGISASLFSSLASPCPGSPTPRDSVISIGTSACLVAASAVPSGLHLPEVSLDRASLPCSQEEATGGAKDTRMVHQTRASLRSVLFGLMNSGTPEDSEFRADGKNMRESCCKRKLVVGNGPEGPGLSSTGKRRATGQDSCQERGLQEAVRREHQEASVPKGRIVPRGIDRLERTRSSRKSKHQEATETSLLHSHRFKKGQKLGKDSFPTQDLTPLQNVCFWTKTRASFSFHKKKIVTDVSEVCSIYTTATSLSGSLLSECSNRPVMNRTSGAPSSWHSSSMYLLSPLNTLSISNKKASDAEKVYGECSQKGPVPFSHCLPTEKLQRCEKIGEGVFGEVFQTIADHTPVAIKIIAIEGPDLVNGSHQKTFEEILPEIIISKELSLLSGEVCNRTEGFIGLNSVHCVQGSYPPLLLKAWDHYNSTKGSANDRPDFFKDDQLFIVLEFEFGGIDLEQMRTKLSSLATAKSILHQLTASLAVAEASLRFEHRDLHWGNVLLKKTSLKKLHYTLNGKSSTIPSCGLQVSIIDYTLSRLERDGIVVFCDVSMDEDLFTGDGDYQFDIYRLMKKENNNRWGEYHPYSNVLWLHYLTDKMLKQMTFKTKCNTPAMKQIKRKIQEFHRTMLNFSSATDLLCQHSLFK

[5] = target: Serine/threonine-protein kinase PAK 4 (Homo sapiens) (UniProt O96013)
Chain of Serine/threonine-protein kinase PAK 4 (Homo sapiens) (O96013 whole entry, looked up): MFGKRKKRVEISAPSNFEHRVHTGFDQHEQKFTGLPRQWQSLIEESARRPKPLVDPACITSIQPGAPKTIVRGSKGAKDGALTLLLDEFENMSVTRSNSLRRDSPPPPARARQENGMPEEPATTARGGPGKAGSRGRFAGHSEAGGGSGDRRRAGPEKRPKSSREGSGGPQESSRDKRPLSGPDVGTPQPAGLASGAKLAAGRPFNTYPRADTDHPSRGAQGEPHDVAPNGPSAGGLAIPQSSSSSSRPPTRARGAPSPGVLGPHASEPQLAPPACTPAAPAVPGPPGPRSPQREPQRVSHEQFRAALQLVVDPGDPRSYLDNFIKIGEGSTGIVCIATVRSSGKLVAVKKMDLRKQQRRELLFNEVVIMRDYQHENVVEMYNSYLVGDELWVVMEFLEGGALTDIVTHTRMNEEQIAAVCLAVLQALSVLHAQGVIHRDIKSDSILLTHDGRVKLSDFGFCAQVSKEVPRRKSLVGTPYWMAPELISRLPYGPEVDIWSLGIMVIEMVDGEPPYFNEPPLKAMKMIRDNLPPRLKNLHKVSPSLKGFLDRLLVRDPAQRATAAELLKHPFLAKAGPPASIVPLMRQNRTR

[6] = target: Protein kinase C delta type (Homo sapiens) (UniProt Q05655)
Chain of Protein kinase C delta type (Homo sapiens) (Q05655 whole entry, looked up): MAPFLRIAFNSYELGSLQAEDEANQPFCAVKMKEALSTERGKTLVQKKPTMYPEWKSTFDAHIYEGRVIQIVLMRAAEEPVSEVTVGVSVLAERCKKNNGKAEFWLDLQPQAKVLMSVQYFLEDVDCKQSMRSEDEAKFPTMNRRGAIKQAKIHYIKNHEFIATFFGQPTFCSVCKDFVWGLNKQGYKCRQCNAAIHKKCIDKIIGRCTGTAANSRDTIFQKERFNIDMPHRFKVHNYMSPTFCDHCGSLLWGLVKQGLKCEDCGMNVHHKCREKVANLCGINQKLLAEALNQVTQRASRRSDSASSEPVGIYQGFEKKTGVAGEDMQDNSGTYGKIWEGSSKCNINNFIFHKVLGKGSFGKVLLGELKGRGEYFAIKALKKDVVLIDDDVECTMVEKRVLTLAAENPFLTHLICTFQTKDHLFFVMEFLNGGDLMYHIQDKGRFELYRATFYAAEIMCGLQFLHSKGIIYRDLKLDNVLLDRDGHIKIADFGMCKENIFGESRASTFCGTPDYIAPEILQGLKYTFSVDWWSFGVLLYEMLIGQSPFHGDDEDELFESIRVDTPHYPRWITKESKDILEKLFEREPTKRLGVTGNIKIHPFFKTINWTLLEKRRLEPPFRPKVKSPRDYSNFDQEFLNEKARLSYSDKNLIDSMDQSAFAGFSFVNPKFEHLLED

[7] = target: Ephrin type-A receptor 2 (Homo sapiens) (UniProt P29317)
Chain of Ephrin type-A receptor 2 (Homo sapiens) (P29317 whole entry): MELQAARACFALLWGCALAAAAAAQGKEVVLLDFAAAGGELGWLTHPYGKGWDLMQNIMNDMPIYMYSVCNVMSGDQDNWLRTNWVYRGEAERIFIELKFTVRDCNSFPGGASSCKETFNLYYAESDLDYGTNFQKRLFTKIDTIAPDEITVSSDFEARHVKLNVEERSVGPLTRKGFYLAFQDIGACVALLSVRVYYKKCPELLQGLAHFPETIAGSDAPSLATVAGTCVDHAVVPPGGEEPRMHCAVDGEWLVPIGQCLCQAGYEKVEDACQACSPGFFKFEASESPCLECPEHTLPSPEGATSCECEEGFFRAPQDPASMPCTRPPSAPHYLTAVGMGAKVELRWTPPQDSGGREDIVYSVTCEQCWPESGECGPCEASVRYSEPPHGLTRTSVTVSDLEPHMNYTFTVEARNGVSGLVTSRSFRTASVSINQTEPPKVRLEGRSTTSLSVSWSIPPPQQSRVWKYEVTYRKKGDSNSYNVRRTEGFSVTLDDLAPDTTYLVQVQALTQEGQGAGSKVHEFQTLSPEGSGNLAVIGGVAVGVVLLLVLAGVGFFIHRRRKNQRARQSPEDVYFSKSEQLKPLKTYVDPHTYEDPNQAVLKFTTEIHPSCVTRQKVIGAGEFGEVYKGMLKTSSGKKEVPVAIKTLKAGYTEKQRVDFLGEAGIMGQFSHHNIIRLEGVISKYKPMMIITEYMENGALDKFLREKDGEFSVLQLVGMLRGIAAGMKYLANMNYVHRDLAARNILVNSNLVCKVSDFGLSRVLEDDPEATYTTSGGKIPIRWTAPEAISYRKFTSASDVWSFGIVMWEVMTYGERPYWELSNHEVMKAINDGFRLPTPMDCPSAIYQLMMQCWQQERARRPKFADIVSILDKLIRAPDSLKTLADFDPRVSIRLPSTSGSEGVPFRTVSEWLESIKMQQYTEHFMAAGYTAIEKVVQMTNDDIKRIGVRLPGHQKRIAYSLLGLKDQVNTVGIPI

[8] = target: T3, Inhibitor of nuclear factor kappa-B kinase subunit beta (Homo sapiens) (UniProt O14920)
T3 sequence (whole entry): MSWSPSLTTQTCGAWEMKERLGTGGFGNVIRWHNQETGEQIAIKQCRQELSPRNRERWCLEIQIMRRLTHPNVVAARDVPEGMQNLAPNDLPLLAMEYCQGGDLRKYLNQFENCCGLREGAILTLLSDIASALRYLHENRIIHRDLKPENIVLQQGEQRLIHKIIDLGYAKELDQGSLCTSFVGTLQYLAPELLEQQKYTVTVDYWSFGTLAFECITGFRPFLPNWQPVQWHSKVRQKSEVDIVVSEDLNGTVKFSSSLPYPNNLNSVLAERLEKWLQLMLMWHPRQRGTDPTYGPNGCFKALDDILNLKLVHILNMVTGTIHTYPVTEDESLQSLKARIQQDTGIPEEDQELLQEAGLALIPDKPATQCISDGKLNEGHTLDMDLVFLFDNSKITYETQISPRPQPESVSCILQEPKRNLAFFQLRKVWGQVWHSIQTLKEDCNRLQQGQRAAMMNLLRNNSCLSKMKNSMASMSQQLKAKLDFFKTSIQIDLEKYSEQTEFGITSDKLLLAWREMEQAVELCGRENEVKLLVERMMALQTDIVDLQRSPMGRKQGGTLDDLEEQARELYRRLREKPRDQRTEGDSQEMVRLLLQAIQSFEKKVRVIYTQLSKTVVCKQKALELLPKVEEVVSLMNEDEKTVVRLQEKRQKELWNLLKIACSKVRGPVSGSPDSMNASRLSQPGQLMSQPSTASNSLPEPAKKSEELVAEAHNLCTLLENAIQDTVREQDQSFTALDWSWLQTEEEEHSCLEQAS

Measured: residual activity

CN1CCN(c2cnc3c(C4CCN(C(=O)c5ccc(OC(F)(F)F)cc5N)CC4)ncnc3c2)CC1 [BAY-885]
inactive: [1] 100% | [2] 100% | [3] 100% | [4] 100% | [5] 91% | [6] 100% | [7] 100% | [8] 100%

Cc1nc(C2CCN(C(=O)c3ccc(OC(F)(F)F)cc3N)CC2)c2ncc(N3CCN(C)CC3)cc2n1 [BAY-693]
inactive: [1] 100% | [2] 100% | [3] 85% | [4] 100% | [5] 100% | [6] 100% | [7] 100% | [8] 78%

Reference: ChEMBL document CHEMBL4507268 (2021)
